Assay results taken from patent publication US20260216172A1, “COMPOUNDS AND METHOD FOR TREATING HIV INFECTION” (The United States of America, as represented by the …, priority 2023, published 2026).
pEC50: −log10 of the molar value. Read-outs that look alike come from different tables or passages of the source.

Experiments:
[1] = Cytotoxicity in PBMCs (XTT); type: cell-based; details: human, PHA-P stimulated PBMCs pooled from three donors, read-out: TC50
Protocol: (§1) (b) Anti-HIV-1 Cytoprotection Assay in PBMCs: PHA-P stimulated PBMCs from three donors were pooled together and re-suspended in fresh tissue culture medium at 1×10^6 cells/ml and plated in the interior wells of a 96 well round bottom microplate at 50 μL/well. A 100 μL volume of 2× concentrations of compound-containing media were transferred to the round-bottom 96-well plate containing the cells in triplicate. Fifty microliters (50 μL) of HIV-1 at a pre-determined dilution was added. Each plate contained cell control wells and virus control wells in parallel with the experimental wells. After 7 days in culture, efficacy was evaluated by measuring the reverse transcriptase in the culture supernatants and the cells were stained with the tetrazolium dye XTT to evaluate cytotoxicity.
as §1, with “This Example illustrates anti-HIV cytoprotection provided by compounds” for “(b) Anti-HIV-1 Cytoprotection Assay”, “accordance with another aspect of the invention, namely in PBMCs.” for “PBMCs:”

HIV-192RW009 = test: Anti-HIV-1 cytoprotection assay in PBMCs (reverse transcriptase in supernatant); type: cell-based; details: Human immunodeficiency virus 1, 168 h; PBMC, HIV-192RW009, 7 days
Protocol: as §1

HIV-1RF = test: Anti-HIV cytoprotection evaluation in CEM-SS cells (CPE inhibition, XTT); type: cell-based; details: Human immunodeficiency virus 1, 144 h, 6 days
Protocol: (§2) (a) Anti-HIV Cytoprotection Evaluation: Inhibition of virus-induced cytopathic effects (CPE) and cell viability following HIV replication in CEM-SS cells were measured by the use of XTT tetrazolium dye. CEM-SS cells (2.5×10^3 cells per well) were seeded in 96-well U-bottomed tissue culture plates in RPMI medium supplemented with 10% FBS, 2 mM L-glutamine, 100 U/ml penicillin and 100 μg/ml streptomycin. Serially diluted compounds (6 concentrations) and HIV-1RF diluted to a pre-determined titer to yield 85 to 95% cell killing at 6 days post-infection were be added to the plate. AZT was evaluated in parallel as a positive control. Following incubation at 37° C., 5% CO2 for six days, cell viability was measured by XTT staining. The optical density of the cell culture plate will be determined spectrophotometrically at 450 and 650 nm using Softmax Pro 4.6 software. Percent CPE reduction of the virus-infected wells and the percent cell viability of uninfected drug control wells was calculated to define the EC50, TC50 and therapeutic index (TI50) using Microsoft Excel Xlfit4.
as §2, with “Inhibition” for “(a) Anti-HIV Cytoprotection Evaluation: Inhibition”, “by” for “by the use of”, “wells were” for “wells was”

[2] = Cell viability of uninfected drug control wells, CEM-SS cells (XTT); type: cell-based; details: human, read-out: TC50
Protocol: as §2
as §2, with “Inhibition” for “(a) Anti-HIV Cytoprotection Evaluation: Inhibition”, “by” for “by the use of”, “wells were” for “wells was”

[3] = Pharmacokinetic study in male CD-1 mice; type: in vivo; details: single IV bolus 5 mg/kg of compound 17, male CD-1 mice; for AUC0-inf: 5 mg/kg
Protocol: Male CD-1 mice weighing between […] were dosed via orbital sinus injection and blood was collected via submandibular vein. IV dosing solutions were prepared in DMSO:PEG400:Saline (5:35:60, v/v/v) at 1 mg/mL concentration of the prodrug. Blood samples (50 μL each time point) were obtained via Culex at predetermined time points (0, 5, 15, 30, 60, 120, 240, 360, 480 and 1440 min) after dosing. Plasma was obtained by centrifugation within 30 minutes after collection and aliquots of dosing solutions were taken and analyzed at the same time with plasma samples using a validated LC-MS/MS method developed on a Shimadzu HPLC system interfaced to a Sciex QTRAP 5500 mass spectrometer. Eluents were gradient mixtures of water and acetonitrile with 0.10% formic acid. HPLC column was ACE 5 C8, 50×2.1 mm, […]. PK parameters of the analytes were obtained using Phoenix®, WinNonlin® software (version 8.1).
The study was performed in male CD-1 mice to assess pharmacokinetics (PK) of prodrug 17 and its metabolites 18 and 19.

PBMCs = test: Cytotoxicity in PBMCs (XTT); type: cell-based; details: PBMCs, read-out: TC50 (the source's name)
Protocol: as §1
as §1, with “This Example illustrates anti-HIV cytoprotection provided by compounds” for “(b) Anti-HIV-1 Cytoprotection Assay”, “accordance with another aspect of the invention, namely in PBMCs.” for “PBMCs:”

HIV-1 ZA97009 (C) = test: Anti-HIV-1 cytoprotection assay in PBMCs, isolate ZA97009 (C); type: cell-based; details: Human immunodeficiency virus 1, CCR5
Protocol: as §1, with “This Example illustrates anti-HIV cytoprotection provided by compounds” for “(b) Anti-HIV-1 Cytoprotection Assay”, “accordance with another aspect of the invention, namely in PBMCs.” for “PBMCs:”

HIV-1 RU132 (G) = test: Anti-HIV-1 cytoprotection assay in PBMCs, isolate RU132 (G); type: cell-based; details: Human immunodeficiency virus 1, CCR5
Protocol: as §1, with “This Example illustrates anti-HIV cytoprotection provided by compounds” for “(b) Anti-HIV-1 Cytoprotection Assay”, “accordance with another aspect of the invention, namely in PBMCs.” for “PBMCs:”

HIV-1 RW92009 (A) = test: Anti-HIV-1 cytoprotection assay in PBMCs, isolate RW92009 (A); type: cell-based; details: Human immunodeficiency virus 1, PBMC, CXCR4/CCR5
Protocol: as §1, with “This Example illustrates anti-HIV cytoprotection provided by compounds” for “(b) Anti-HIV-1 Cytoprotection Assay”, “accordance with another aspect of the invention, namely in PBMCs.” for “PBMCs:”

HIV-1 UG92001 (D) = test: Anti-HIV-1 cytoprotection assay in PBMCs, isolate UG92001 (D); type: cell-based; details: Human immunodeficiency virus 1, PBMC, CXCR4/CCR5
Protocol: as §1, with “This Example illustrates anti-HIV cytoprotection provided by compounds” for “(b) Anti-HIV-1 Cytoprotection Assay”, “accordance with another aspect of the invention, namely in PBMCs.” for “PBMCs:”

HIV-1 HT92599 (B) = test: Anti-HIV-1 cytoprotection assay in PBMCs, isolate HT92599 (B); type: cell-based; details: Human immunodeficiency virus 1, PBMC, CXCR4
Protocol: as §1, with “This Example illustrates anti-HIV cytoprotection provided by compounds” for “(b) Anti-HIV-1 Cytoprotection Assay”, “accordance with another aspect of the invention, namely in PBMCs.” for “PBMCs:”

HIV-1 BCF01 (O) = test: Anti-HIV-1 cytoprotection assay in PBMCs, isolate BCF01 (O); type: cell-based; details: Human immunodeficiency virus 1, CCR5
Protocol: as §1, with “This Example illustrates anti-HIV cytoprotection provided by compounds” for “(b) Anti-HIV-1 Cytoprotection Assay”, “accordance with another aspect of the invention, namely in PBMCs.” for “PBMCs:”

HIV-1 CMU08 (E) = test: Anti-HIV-1 cytoprotection assay in PBMCs, isolate CMU08 (E); type: cell-based; details: Human immunodeficiency virus 1, PBMC, CXCR4
Protocol: as §1, with “This Example illustrates anti-HIV cytoprotection provided by compounds” for “(b) Anti-HIV-1 Cytoprotection Assay”, “accordance with another aspect of the invention, namely in PBMCs.” for “PBMCs:”

HIV-1 BR93020 (F) = test: Anti-HIV-1 cytoprotection assay in PBMCs, isolate BR93020 (F); type: cell-based; details: Human immunodeficiency virus 1, CCR5
Protocol: as §1, with “This Example illustrates anti-HIV cytoprotection provided by compounds” for “(b) Anti-HIV-1 Cytoprotection Assay”, “accordance with another aspect of the invention, namely in PBMCs.” for “PBMCs:”

[4] = PBMC, HIV-192RW009, 7 days, XTT
[5] = mouse, in vivo, plasma, 18 and 19 measured as metabolites
[6] = plasma, 18 and 19 measured as metabolites

Structure (SMILES): CCCC(=O)OCSc1ccccc1C(=O)NCCn1ccc(=O)c2cc(F)ccc21 [Compound 1, ((2-((2-(6-fluoro-4-oxoquinolin-1(4H)-yl)ethyl)carbamoyl)phenyl)thio)methyl butyrate]
- CC50 at 7 days [1, 4]: > 100 µM
- pEC50 (HIV-192RW009): 5.61
- pEC50 (HIV-1RF): 6.25
- CC50 at 6 days [2]: 56.2 µM

Structure (SMILES): CCCC(=O)OCSc1ccccc1C(=O)NCCn1ccc(=O)c2cc3c(cc21)OCO3 [Compound 2, ((2-((2-(8-oxo-[1,3]dioxolo[4,5-g]quinolin-5(8H)-yl)ethyl)carbamoyl)phenyl)thio)methyl butyrate]
- CC50 at 7 days [1, 4]: > 100 µM
- pEC50 (HIV-192RW009): 6.32
- pEC50 (HIV-1RF): 5.94
- CC50 at 6 days [2]: 32.2 µM

Structure (SMILES): CCCC(=O)OCSc1ccccc1C(=O)NCCn1cc(C(=O)NCc2ccccn2)c(=O)c2cc3c(cc21)OCO3 [Compound 5, ((2-((2-(8-oxo-7-((pyridin-2-ylmethyl)carbamoyl)-[1,3]dioxolo[4,5-g]quinolin-5(8H)-yl)ethyl)carbamoyl)phenyl)thio)methyl butyrate]
- CC50 at 7 days [1, 4]: > 100 µM
- pEC50 (HIV-192RW009): 6.04
- pEC50 (HIV-1RF): 6.27
- CC50 at 6 days [2]: > 100 µM

Structure (SMILES): Cc1cccc(CNC(=O)c2cn(CCNC(=O)c3ccccc3S)c3cc4c(cc3c2=O)OC(F)(F)O4)n1 [Compound 19]
- AUC0-inf ([3]; male, CD-1, mouse, in vivo, iv, plasma, 18 and 19 measured as metabolites, read-out: AUC0-inf): 13.1 ng·h/mL
- AUC(0-t) [3, 5]: 12.8 ng·h/mL
- Cmax [3, 5]: 46.9 ng/mL
- MRT inf [3, 5]: 19.8 min
- Tmax [3, 5]: 4.98 min
- half-life [3, 5]: 21 min
- tlast [3, 6]: 2.00 h
- AUC0-inf [3, 6]: 12.8 ng·h/mL

Structure (SMILES): CCCC(=O)OCSc1ccccc1C(=O)NCCn1cc(C(=O)NCc2cccc(C)n2)c(=O)c2cc3c(cc21)OC(F)(F)O3 [Compound 17, ((2-((2-(2,2-difluoro-7-(((6-methylpyridin-2-yl)methyl)carbamoyl)-8-oxo-[1,3]dioxolo[4,5-g]quinolin-5(8H)-yl)ethyl)carbamoyl)phenyl)thio)methyl butyrate]
- CC50 at 7 days ([1]; PBMCs, line of isolate CMU08 (E)): > 100 µM
- CC50 (PBMCs; line of isolate BCF01 (O)): > 100 µM
- CC50 (PBMCs; line of isolate BR93020 (F)): > 100 µM
- CC50 (PBMCs; line of isolate HT92599 (B)): > 100 µM
- CC50 (PBMCs; line of isolate RU132 (G)): > 100 µM
- CC50 (PBMCs; line of isolate RW92009 (A)): > 100 µM
- CC50 (PBMCs; line of isolate UG92001 (D)): > 100 µM
- CC50 (PBMCs; line of isolate ZA97009 (C)): > 100 µM
- pEC50 (HIV-1 ZA97009 (C)): 4.97
- pEC50 (HIV-1 RU132 (G)): 5.16
- pEC50 (HIV-1 RW92009 (A)): 5.37
- clearance ([3]; mouse, in vivo): 136 mL/min/kg
- C0 ([3]; mouse, in vivo, plasma): 1910 ng/mL
- Vd ([3]; mouse, in vivo, read-out: Vss): 9.6 L/kg
- tlast [3, 6]: 8.00 h
- pEC50 (HIV-1 UG92001 (D)): 5.29
- pEC50 (HIV-1 HT92599 (B)): 5.19
- pEC50 (HIV-1 BCF01 (O)): 5.11
- pEC50 (HIV-1RF): 5.83
- CC50 at 6 days [2]: > 100 µM
- pEC50 (HIV-1 CMU08 (E)): 5.28
- pEC50 (HIV-1 BR93020 (F)): 5.70
